{"source": "patent US20250179028A1", "about": "“ACRYLAMIDE COMPOUNDS” (NRG THERAPEUTICS LTD, priority 2022, published 2025)", "data": [{"tested_on": "mPTP", "test": "mPTP activity (Ca2+ retention) assay in isolated rat liver mitochondria", "format": "biochemical", "conditions": "isolated rat liver mitochondria; average value from multiple experiments (n ≥ 2)", "description": "Pharmacological inhibition or modulation of the mPTP can be measured in well characterised ‘Ca^2+ retention’ assays performed in isolated mitochondria. In vitro isolated mitochondria rapidly sequester exogenous Ca^2+ until the intramitochondrial Ca^2+ concentration reaches the threshold for mPTP activation. Once the pore is activated, mitochondrial integrity is compromised and the stored Ca^2+ is released. The distribution of Ca^2+ between extra- and intra-mitochondrial compartments can be measured in real time with the use of membrane-impermeant Ca^2+ sensitive fluorescent dyes. Depending on the configuration of the assay, inhibition or modulation of the mPTP either delays the opening of the pore or increases the concentration of Ca^2+ required to induce mPTP opening.\nMPTP activity was measured in mitochondria freshly isolated from female Sprague Dawley (250 to 300 gram) rat livers using the following method. Cervical dislocation was performed on the rat. The liver was then perfused in-situ with ˜40 ml cold Dulbecco's Phosphate Buffered Saline (DPBS) prior to dissection and transferred into 30 ml Isolation Buffer (250 mM Sucrose, 10 mM KCl, 1 mM EGTA, 1 mM EDTA, 25 mM HEPES, adjusted to pH 7.5 with 1 M NaOH). Each lobe of the liver was then removed from the buffer, minced using tweezers and a scalpel into ˜5 mm pieces then transferred into a 50 ml Potterton dounce homogenization tube on ice containing 30 ml ice-cold centrifugation buffer (300 mM Trehalose, 25 mM HEPES, 1 mM EGTA, 1 mM EDTA, 10 mM KCl, adjusted to pH 7.5 with 1 M NaOH and supplemented with 0.1% bovine serum albumin (BSA) and complete protease inhibitor cocktail (one tablet of inhibitor per 50 mls of buffer). Homogenisation was carried out using a teflon pestle at 1800 rpm. The slurry was centrifuged at 800 g for 10 min at 4° C., then the supernatant centrifuged at 10,000 g for 10 min. The pellet was washed once with FLIPR assay buffer (75 mM Mannitol, 25 mM Sucrose, 5 mM Potassium Phosphate Monobasic, 20 mM Tris base, 100 mM KCl, 0.1% BSA adjusted to pH 7.4 with 5M HCl) centrifuged again, then resuspended in FLIPR assay buffer to a concentration of 8.8 mg/ml protein.\nTested compounds (10 mM stock in DMSO) were serially diluted in DMSO in half log steps to generate 10 test concentrations (final concentrations in assay 30 μM to 1 nM). An intermediate dilution of 5 μl DMSO samples into 247 μl FLIPR assay buffer was carried out prior to transfer of 5 μl into duplicate wells of a 384 well polypropylene assay plate. Control wells were 0.5% (v/v) DMSO and 5 μM cyclosporin A.\nA stock mitochondria/Fluo5N assay solution was prepared in 5.6 ml FLIPR assay buffer (at RT) supplemented with succinate disodium salt (10 mM), rotenone (1 μM), Fluo5N pentapotassium salt (2 μM) and 1 ml mitochondria suspension, then transferred (15 μl) into the assay plate containing test compounds and incubated for 10 min at RT. Assay plates were then transferred to a FLIPR Tetra plate reader (Molecular Devices). Dye fluorescence was then measured every 3 sec for a total of 10 min. After 12 sec, a 2.5 μl bolus of CaCl2 (75 μM) was added from a source plate containing 675 μM CaCl2 in FLIPR assay buffer. IC50 values for tested compounds were calculated using the fluorescence value collected at the 10 min timepoint with % inhibition calculated using the DMSO control and cyclosporin A values as […] respectively.", "values": [{"compound": "CC1Cc2ccccc2C1NC(=O)/C=C/c1ccc2oc(=O)[nH]c2c1", "note": "(stereo not shown) [Example 46, (E)-N-(2-methyl-2,3-dihydro-1H-inden-1-yl)-3-(2-oxo-2,3-dihydrobenzo[d]oxazol-5-yl)acrylamide]", "mPTP Rat liver pIC50": 6.3}, {"compound": "Cc1c(F)cc(F)cc1NC(=O)/C=C/c1ccc2c(c1)NC(=O)C2", "note": "[Example 60, (E)-N-(3,5-difluoro-2-methylphenyl)-3-(2-oxoindolin-6-yl)acrylamide]", "mPTP Rat liver pIC50": 5.7}, {"compound": "O=C(/C=C/c1cc(F)c2nn[nH]c2c1)NC1CCc2ccccc21", "note": "(stereo not shown) [Example 62, (E)-N-(2,3-dihydro-1H-inden-1-yl)-3-(4-fluoro-1H-benzo[d][1,2,3]triazol-6-yl)acrylamide]", "mPTP Rat liver pIC50": 5.6}, {"compound": "Cc1n[nH]c2cc(/C=C/C(=O)N[C@@H]3CCc4ccccc43)ccc12", "note": "[Example 55, (E)-N-(2,3-dihydro-1H-inden-1-yl)-3-(3-methyl-1H-indazol-6-yl)acrylamide]", "mPTP Rat liver pIC50": 7.1}, {"compound": "CC1Cc2ccccc2C1NC(=O)/C=C/c1ccc2c(c1)[nH]c(=O)n2C", "note": "(stereo not shown) [Example 45, (E)-N-(2-methyl-2,3-dihydro-1H-inden-1-yl)-3-(1-methyl-2-oxo-2,3-dihydro-1H-benzo[d]imidazol-5-yl)acrylamide]", "mPTP Rat liver pIC50": 6.3}, {"compound": "O=C(/C=C/c1ccc2oc(=O)[nH]c2c1)NC1CCOc2ccccc21", "note": "(stereo not shown) [Example 56, (E)-N-(chroman-4-yl)-3-(2-oxo-2,3-dihydrobenzo[d]oxazol-5-yl)acrylamide]", "mPTP Rat liver pIC50": 5.8}, {"compound": "O=C(/C=C/c1ccc2c(c1)NC(=O)C2)NC1CCc2ccccc21", "note": "(stereo not shown) [Example 59, (E)-N-(2,3-dihydro-1H-inden-1-yl)-3-(2-oxoindolin-6-yl)acrylamide]", "mPTP Rat liver pIC50": 5.5}, {"compound": "O=C(/C=C/c1ccc2nn[nH]c2c1F)NC1CCc2ccccc21", "note": "(stereo not shown) [Example 61, (E)-N-(2,3-dihydro-1H-inden-1-yl)-3-(7-fluoro-1H-benzo[d][1,2,3]triazol-6-yl)acrylamide]", "mPTP Rat liver pIC50": 5.6}, {"compound": "O=C(/C=C/c1ccc2oc(=O)[nH]c2c1)NC1CCCc2ccccc21", "note": "(stereo not shown) [Example 57, (E)-3-(2-oxo-2,3-dihydrobenzo[d]oxazol-5-yl)-N-(1,2,3,4-tetrahydronaphthalen-1-yl)acrylamide]", "mPTP Rat liver pIC50": 5.8}, {"compound": "Cc1c(F)cccc1NC(=O)/C=C/c1ccc2sc(=O)[nH]c2c1", "note": "[Example 2, (E)-N-(3-fluoro-2-methylphenyl)-3-(2-oxo-2,3-dihydrobenzo[d]thiazol-5-yl)acrylamide]", "mPTP Rat liver pIC50": 6.0}, {"compound": "Cc1n[nH]c2cc(/C=C/C(=O)NC3c4ccccc4OCC3C)ccc12", "note": "(stereo not shown) [Example 52, (E)-3-(3-methyl-1H-indazol-6-yl)-N-(3-methylchroman-4-yl)acrylamide]", "mPTP Rat liver pIC50": 6.9}, {"compound": "CC1CCc2ccccc2C1NC(=O)/C=C/c1ccc2c(c1)NC(=O)C2", "note": "(stereo not shown) [Example 58]", "mPTP Rat liver pIC50": 5.5}, {"compound": "Cc1n[nH]c2cc(/C=C/C(=O)N[C@@H]3CCCC[C@H]3C)ccc12", "note": "[Example 43, (E)-3-(3-methyl-1H-indazol-6-yl)-N-((1R,2R)-2-methylcyclohexyl)acrylamide]", "mPTP Rat liver pIC50": 6.3}, {"compound": "Cc1ccc(Cl)cc1NC(=O)/C=C/c1ccc2oc(=O)[nH]c2c1", "note": "[Example 63, (E)-N-(5-chloro-2-methylphenyl)-3-(2-oxo-2,3-dihydrobenzo[d]oxazol-5-yl)acrylamide]", "mPTP Rat liver pIC50": 4.9}, {"compound": "Cc1n[nH]c2cc(/C=C/C(=O)NC3c4ccccc4CCC3C)ccc12", "note": "(stereo not shown) [Example 53, (E)-N-(2-methyl-1,2,3,4-tetrahydronaphthalen-1-yl)-3-(3-methyl-1H-indazol-6-yl)acrylamide]", "mPTP Rat liver pIC50": 6.7}, {"compound": "CC1CCCCC1NC(=O)/C=C/c1ccc2c(c1)NC(=O)C2", "note": "(stereo not shown) [Example 64, (E)-N-(2-methylcyclohexyl)-3-(2-oxoindolin-6-yl)acrylamide]", "mPTP Rat liver pIC50": 4.9}]}]}
